18 compounds from ChEMBL document CHEMBL4177611, “Discovery of aminocyclohexene analogues as selective and orally bioavailable hNav1.7 inhibitors for analgesia” (Bioorg Med Chem Lett, 2017) can be followed below.

Some targets named below: Cytochrome P450 2C9 (Homo sapiens, UniProt P11712); Cytochrome P450 2C19 (Homo sapiens, UniProt P33261); Cytochrome P450 2D6 (Homo sapiens, UniProt P10635); Cytochrome P450 3A4 (Homo sapiens, UniProt P08684).
Data set [1] deals with Sodium channel protein type 9 subunit alpha (Homo sapiens, UniProt Q15858). Briefly: Inhibition of human Nav1.7 expressed in CHO-K1 cells at -120 mV holding potential incubated over 5 mins measured at 15 secs interval by Qpatch clamp assay. Format: cell-based.
Data set [2] can be described thus: Clearance in Sprague-Dawley rat administered as single iv bolus by LC-MS/MS analysis. Format: ADME, organism-based. The note with it: in vivo.
Data set [3] is described as follows: Volume of distribution at steady state in Sprague-Dawley rat administered as single iv bolus by LC-MS/MS analysis. Format: ADME, organism-based. The note with it: in vivo, read-out: Vdss.
A short description of data set [4]: AUC in Sprague-Dawley rat at 2 mg/kg administered as single dose via oral gavage by LC-MS/MS analysis. Format: ADME, organism-based. The note with it: in vivo.
Data set [5] in a line: Oral bioavailability in Sprague-Dawley rat at 2 mg/kg administered as single dose via gavage by LC-MS/MS analysis. Format: ADME, organism-based. Conditions: in vivo.
Another data set has as its target T1, Cytochrome P450 1A2 (Homo sapiens, UniProt P05177).
T1 sequence (P05177 whole entry): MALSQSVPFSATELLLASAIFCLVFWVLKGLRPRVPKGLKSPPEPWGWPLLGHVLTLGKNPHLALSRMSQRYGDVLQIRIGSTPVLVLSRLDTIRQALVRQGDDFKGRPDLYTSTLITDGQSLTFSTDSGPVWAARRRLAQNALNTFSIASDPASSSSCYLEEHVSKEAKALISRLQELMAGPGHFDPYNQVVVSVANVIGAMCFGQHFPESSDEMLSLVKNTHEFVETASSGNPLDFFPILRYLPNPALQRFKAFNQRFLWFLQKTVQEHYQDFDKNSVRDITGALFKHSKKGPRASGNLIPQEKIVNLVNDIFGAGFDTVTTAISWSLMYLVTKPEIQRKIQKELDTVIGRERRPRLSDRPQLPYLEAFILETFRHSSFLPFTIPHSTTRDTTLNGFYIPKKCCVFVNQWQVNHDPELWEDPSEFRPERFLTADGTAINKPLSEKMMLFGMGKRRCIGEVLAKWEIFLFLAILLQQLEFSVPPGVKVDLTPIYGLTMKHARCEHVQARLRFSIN

Data set [6] can be described thus: Ratio of total drug level in iv dosed rat brain to plasma measured 2 hrs post dose. Format: ADME, organism-based. The note with it: read-out: BPR.
Data set [7] can be described thus: in vitro. The note with it: human, Caco-2.
Data set [8] can be described thus: in vitro. The note with it: human, Caco-2. This is another data set of the same source.
For data set [9], the system named is Rattus norvegicus. In words: Antinociceptive activity in Sprague-Dawley rat formalin-induced nociception model assessed as inhibition of formalin-induced flinches in phase 2 at 30 mg/kg, po administered via oral gavage 60 mins before formalin challenge measured for 1 hr post dose. Format: functional, organism-based.
For data set [10], the system named is Rattus norvegicus. Briefly: Antinociceptive activity in Sprague-Dawley rat formalin-induced nociception model assessed as inhibition of formalin-induced flinches in phase 1 at 30 mg/kg, po administered via oral gavage 60 mins before formalin challenge measured for 1 hr post dose. Format: functional, organism-based.
The subject of data set [11] is Rattus norvegicus. In words: Antiallodynic activity in Sprague-Dawley rat spinal nerve ligation model assessed as reduction in mechanical allodynia by measuring paw withdrawal threshold at 100 mg/kg, po measured at 1 to 2 hrs post dose. Format: functional, organism-based.
The test system of data set [12] is Rattus norvegicus. In words: Antiallodynic activity in Sprague-Dawley rat spinal nerve ligation model assessed as reduction in mechanical allodynia by measuring paw withdrawal threshold at 30 mg/kg, po measured at 1 to 2 hrs post dose. Format: functional, organism-based.
For data set [13], the species on record is Homo sapiens. In words: Selectivity ratio of IC50 for human Nav1.4 to IC50 for human Nav1.7 expressed in CHO-K1 cells. Format: cell-based.
For data set [14], the species on record is Homo sapiens. In words: Selectivity ratio of IC50 for human Nav1.5 expressed in HEK293 cells to IC50 for human Nav1.7 expressed in CHO-K1 cells. Format: cell-based.
The nature of data set [15]: AUC in Sprague-Dawley rat at 10 mg/kg administered as single dose via oral gavage by LC-MS/MS analysis. Format: ADME, organism-based. Conditions: in vivo.
Data set [16] is described as follows: Oral bioavailability in Sprague-Dawley rat at 10 mg/kg administered as single dose via gavage by LC-MS/MS analysis. Format: ADME, organism-based. The note with it: in vivo.

Activity calls are given as the source filed them.

Cytochrome P450 2D6, sequence (P10635 whole entry): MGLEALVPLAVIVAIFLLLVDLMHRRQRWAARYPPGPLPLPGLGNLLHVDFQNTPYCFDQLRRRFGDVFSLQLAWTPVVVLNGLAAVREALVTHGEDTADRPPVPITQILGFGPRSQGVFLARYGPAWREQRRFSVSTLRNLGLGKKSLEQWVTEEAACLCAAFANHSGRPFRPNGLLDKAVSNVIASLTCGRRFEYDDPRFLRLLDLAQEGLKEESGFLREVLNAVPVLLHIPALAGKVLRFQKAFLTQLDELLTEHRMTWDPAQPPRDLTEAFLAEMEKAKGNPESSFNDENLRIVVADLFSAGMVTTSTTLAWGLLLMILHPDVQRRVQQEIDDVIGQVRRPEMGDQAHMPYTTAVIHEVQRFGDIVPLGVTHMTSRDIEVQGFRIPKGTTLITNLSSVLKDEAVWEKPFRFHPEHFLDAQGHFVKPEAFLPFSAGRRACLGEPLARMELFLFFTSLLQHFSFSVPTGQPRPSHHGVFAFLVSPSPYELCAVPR
Cytochrome P450 2C9, sequence (P11712 whole entry): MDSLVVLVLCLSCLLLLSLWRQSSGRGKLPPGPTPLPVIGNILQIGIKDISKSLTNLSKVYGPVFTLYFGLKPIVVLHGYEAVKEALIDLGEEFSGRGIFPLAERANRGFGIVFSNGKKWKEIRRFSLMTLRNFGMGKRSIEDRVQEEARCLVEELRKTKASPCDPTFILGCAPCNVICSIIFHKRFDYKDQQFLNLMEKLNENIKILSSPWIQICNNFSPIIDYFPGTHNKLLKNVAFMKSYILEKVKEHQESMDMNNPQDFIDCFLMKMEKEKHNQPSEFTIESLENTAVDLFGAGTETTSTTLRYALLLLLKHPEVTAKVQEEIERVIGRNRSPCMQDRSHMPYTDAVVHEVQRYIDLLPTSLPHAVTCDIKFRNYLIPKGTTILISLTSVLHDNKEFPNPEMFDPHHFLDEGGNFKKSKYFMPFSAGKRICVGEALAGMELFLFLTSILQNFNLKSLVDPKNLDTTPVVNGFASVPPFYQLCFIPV
Cytochrome P450 2C19, sequence (P33261 whole entry): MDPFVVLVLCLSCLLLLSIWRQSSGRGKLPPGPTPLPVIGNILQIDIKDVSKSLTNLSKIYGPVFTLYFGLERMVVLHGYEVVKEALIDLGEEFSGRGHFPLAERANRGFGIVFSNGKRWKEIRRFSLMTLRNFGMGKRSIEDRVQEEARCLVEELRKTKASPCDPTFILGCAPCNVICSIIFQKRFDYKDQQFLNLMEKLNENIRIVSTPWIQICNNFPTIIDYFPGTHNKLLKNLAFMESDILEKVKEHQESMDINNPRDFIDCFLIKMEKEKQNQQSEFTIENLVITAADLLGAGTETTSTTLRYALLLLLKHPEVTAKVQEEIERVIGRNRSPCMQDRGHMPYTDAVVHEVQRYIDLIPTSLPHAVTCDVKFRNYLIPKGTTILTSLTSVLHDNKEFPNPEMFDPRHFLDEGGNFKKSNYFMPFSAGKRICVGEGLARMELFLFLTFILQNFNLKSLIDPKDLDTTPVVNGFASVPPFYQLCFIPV
Cytochrome P450 3A4, sequence (P08684 whole entry): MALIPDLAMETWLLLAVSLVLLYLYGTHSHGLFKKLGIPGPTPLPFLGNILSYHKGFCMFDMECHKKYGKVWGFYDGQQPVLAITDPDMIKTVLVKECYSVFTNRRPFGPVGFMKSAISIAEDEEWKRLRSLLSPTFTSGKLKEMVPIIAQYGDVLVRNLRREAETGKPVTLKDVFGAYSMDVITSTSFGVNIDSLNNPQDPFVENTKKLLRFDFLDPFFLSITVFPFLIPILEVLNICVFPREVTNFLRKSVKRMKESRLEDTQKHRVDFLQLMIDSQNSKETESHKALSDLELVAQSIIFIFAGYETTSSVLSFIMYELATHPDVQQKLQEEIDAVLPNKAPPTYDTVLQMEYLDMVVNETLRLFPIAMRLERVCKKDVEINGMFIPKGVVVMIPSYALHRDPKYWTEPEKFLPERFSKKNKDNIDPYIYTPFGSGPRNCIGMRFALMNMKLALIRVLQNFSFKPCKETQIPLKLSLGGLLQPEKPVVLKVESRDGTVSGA
Sodium channel protein type 9 subunit alpha, sequence (Q15858 whole entry): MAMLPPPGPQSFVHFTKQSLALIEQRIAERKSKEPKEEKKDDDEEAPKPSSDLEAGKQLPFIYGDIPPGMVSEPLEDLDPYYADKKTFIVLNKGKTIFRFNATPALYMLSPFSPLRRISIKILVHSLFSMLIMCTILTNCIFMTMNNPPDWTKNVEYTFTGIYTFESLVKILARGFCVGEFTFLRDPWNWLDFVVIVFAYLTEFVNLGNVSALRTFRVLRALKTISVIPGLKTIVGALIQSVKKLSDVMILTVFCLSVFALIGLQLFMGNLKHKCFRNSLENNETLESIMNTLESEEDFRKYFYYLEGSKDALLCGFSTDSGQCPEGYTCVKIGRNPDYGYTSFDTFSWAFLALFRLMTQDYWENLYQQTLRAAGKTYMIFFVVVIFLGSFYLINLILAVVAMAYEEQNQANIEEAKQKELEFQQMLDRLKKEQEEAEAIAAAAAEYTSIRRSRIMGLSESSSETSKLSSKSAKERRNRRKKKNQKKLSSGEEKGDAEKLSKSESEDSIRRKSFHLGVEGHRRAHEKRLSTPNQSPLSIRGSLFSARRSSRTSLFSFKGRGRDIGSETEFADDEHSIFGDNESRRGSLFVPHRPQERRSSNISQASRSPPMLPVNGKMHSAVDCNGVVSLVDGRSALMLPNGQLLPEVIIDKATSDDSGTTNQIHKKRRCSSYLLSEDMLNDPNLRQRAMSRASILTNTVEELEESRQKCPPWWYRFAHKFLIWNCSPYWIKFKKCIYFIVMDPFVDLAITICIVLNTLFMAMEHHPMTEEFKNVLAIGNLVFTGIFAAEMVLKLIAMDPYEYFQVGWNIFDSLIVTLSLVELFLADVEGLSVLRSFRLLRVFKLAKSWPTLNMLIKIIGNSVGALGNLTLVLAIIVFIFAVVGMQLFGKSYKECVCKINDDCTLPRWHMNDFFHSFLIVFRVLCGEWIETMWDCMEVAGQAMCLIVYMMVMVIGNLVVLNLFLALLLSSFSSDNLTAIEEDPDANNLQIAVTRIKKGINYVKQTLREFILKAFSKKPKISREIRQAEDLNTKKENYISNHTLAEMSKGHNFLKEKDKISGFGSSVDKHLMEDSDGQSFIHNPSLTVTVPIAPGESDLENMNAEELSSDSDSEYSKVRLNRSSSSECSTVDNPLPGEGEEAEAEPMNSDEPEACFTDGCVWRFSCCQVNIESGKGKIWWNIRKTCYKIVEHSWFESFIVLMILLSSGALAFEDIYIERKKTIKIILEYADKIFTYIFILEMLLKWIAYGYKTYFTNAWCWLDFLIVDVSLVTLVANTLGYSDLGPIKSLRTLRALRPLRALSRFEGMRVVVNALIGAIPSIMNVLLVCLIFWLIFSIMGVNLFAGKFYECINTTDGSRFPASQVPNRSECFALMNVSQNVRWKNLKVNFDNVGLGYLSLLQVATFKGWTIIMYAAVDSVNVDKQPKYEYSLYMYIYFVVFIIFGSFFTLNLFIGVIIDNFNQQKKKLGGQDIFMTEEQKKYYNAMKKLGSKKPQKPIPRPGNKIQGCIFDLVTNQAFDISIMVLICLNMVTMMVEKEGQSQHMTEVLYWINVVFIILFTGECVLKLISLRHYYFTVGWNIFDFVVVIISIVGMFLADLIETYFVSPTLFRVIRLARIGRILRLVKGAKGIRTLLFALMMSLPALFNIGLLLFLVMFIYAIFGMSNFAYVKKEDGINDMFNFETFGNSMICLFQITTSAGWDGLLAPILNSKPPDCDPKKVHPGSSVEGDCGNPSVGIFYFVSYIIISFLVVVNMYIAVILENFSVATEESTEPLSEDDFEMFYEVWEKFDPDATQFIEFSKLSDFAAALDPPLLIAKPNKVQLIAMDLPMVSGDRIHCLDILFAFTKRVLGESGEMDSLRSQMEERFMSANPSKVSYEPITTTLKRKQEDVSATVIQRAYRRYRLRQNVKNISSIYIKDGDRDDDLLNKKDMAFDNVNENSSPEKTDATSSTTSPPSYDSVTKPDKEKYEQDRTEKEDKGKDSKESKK

Turning to `O=S(=O)(Nc1cscn1)c1cc(Cl)c(OC[C@@H]2C(c3ccc(F)cc3)=CCC[C@H]2N2CCC2)cc1F` (racemic), the IC50 (commonly the concentration that inhibits the measured activity by half) in data set [1] worked out at 1150 nM.

On to `CCN(CC)[C@@H]1CCC=C(c2ccc(F)cc2)[C@H]1COc1cc(F)c(S(=O)(=O)Nc2cscn2)cc1Cl` (racemic), for which the IC50 in data set [1] is 310 nM.

Compound `O=S(=O)(Nc1cscn1)c1cc(Cl)c(OC[C@@H]2C(c3ccc(F)cc3)=CCC[C@H]2n2cnnc2)cc1F` (racemic) registered an IC50 in [1] of 770 nM.

For the compound `CCN[C@@H]1CCC=C(c2ccc(F)cc2)[C@H]1CNc1cc(F)c(S(=O)(=O)Nc2cscn2)cc1Cl`, 200 nM corresponded to half-maximal inhibition in [1] (IC50).

In the case of `CCN[C@@H]1CCC=C(c2ccc(F)cc2)[C@H]1CNc1cc(F)c(S(=O)(=O)Nc2nccs2)cc1Cl.Cl`, the IC50 was 6 nM in data set [1]; greater than 50000 nM against Cytochrome P450 1A2; 200 nM at Cytochrome P450 2C9; 2100 nM on Cytochrome P450 2C19; 14100 nM against Cytochrome P450 2D6; 16500 nM at Cytochrome P450 3A4. Also, the clearance (in general, a measure of how efficiently the substance is removed, as volume per time) in [2] stood at 27.5 mL/min/kg. For the same compound, the Vd in data set [3] came out at 3.07 L/kg. Moreover, the AUC – broadly, the area under the concentration-time curve, a measure of exposure – in data set [4] came out at 0.29 µM·h. In data set [5], the bioavailability (in general, the share of a dose that reaches the circulation, judged against a reference dose that is usually intravenous) is 14%.

Take `CC(=O)N[C@@H]1CCC=C(c2ccc(F)cc2)[C@H]1COc1cc(F)c(S(=O)(=O)Nc2cscn2)cc1Cl` (racemic): the IC50 in data set [1] was found to be 510 nM.

Regarding `CN[C@@H]1CCC=C(c2ccc(F)cc2)[C@H]1COc1cc(F)c(S(=O)(=O)Nc2cscn2)cc1Cl.Cl` (racemic), the IC50 in data set [1] was found to be 170 nM. Besides, the Kp at 2 h in data set [6] came out at 0.04. Besides, the Papp A→B (in general, how fast a substance crosses the layer from the apical side) at 2 h, 2 µM in “in vitro [7]” came out at 0.2 ×10⁻⁶ cm/s. The efflux ratio – broadly, the permeability from basolateral to apical divided by that in the opposite direction, in the common usage – at 2 h, 2 µM in the data set “in vitro [8]” amounted to 127.

In the case of `CCN[C@@H]1CCC=C(c2ccc(F)cc2)[C@H]1COc1cc(F)c(S(=O)(=O)Nc2cscn2)cc1Cl`, the inhibition entry in the data set on Rattus norvegicus [9] was “Active”. Also, the inhibition entry with Rattus norvegicus [10] was “inactive”. The result in the data set with Rattus norvegicus [11] was Active. The result with Rattus norvegicus [12] was inactive. Besides, the Ratio IC50 in the data set listed under Homo sapiens [13] and in the data set listed under Homo sapiens [14] was greater than 30 in each case.

For `Cl.N[C@@H]1CCC=C(c2ccc(F)cc2)[C@H]1CSc1cc(F)c(S(=O)(=O)Nc2nccs2)cc1Cl`, the IC50 in data set [1] is 5 nM; on Cytochrome P450 1A2, greater than 50000 nM; against Cytochrome P450 2C9 it was 100 nM; at Cytochrome P450 2C19 it was 3300 nM; at Cytochrome P450 2D6, 18000 nM; against Cytochrome P450 3A4, 5100 nM. The same compound registered a clearance in data set [2] of 46.5 mL/min/kg. Besides, the Vd in [3] was 6.05 L/kg. The compound further had an AUC in [4] of 0.17 µM·h. The compound also came in with a bioavailability in data set [5] of 14%.

Take `Cl.N[C@@H]1CCC=C(c2ccc(F)cc2)[C@H]1CNc1cc(F)c(S(=O)(=O)Nc2nccs2)cc1Cl`: the half-inhibitory concentration (IC50) in data set [1] was 33 nM; at Cytochrome P450 1A2 it was greater than 50000 nM; on Cytochrome P450 2C9 it was 500 nM; at Cytochrome P450 2C19, 5600 nM; on Cytochrome P450 2D6, 42600 nM; against Cytochrome P450 3A4, greater than 50000 nM. The compound further registered a clearance in data set [2] of 44.2 mL/min/kg. In addition, the Vd in [3] was determined as 4.24 L/kg. The AUC in data set [4] came to 0.04 µM·h. Besides, in data set [5], the bioavailability is 3%.

As for `CN(C)[C@@H]1CCC=C(c2ccc(F)cc2)[C@H]1COc1cc(F)c(S(=O)(=O)Nc2cscn2)cc1Cl.Cl` (racemic), the IC50 in data set [1] amounted to 14 nM. The Kp at 2 h in data set [6] was found to be 0.6. This compound also registered a Papp A→B at 2 h, 2 µM in the data set “in vitro [7]” of 10 ×10⁻⁶ cm/s. Further, the efflux ratio at 2 h, 2 µM in “in vitro [8]” is 1.8.

`CCN[C@@H]1CCC=C(c2ccc(F)cc2)[C@H]1CSc1cc(F)c(S(=O)(=O)Nc2cscn2)cc1Cl` displayed an IC50 in data set [1] of 100 nM.

As to `CCN[C@@H]1CCC=C(c2ccc(F)cc2)[C@H]1COc1cc(F)c(S(=O)(=O)Nc2nccs2)cc1Cl.Cl` (racemic), the IC50 in data set [1] is 48 nM; at Cytochrome P450 1A2 it was greater than 50000 nM; against Cytochrome P450 2C9, 200 nM; against Cytochrome P450 2C19, 1500 nM; against Cytochrome P450 2D6 it was 4500 nM; against Cytochrome P450 3A4, 21600 nM. Moreover, in [2], the clearance was found to be 66.6 mL/min/kg. For the same compound, in data set [3], the Vd stood at 6.21 L/kg. In data set [15], this compound displayed an area under the curve (AUC) of 0.12 µM·h. In data set [16], the bioavailability amounted to 3%.

Consider `Cl.N[C@@H]1CCC=C(c2ccc(F)cc2)[C@H]1COc1cc(F)c(S(=O)(=O)Nc2nccs2)cc1Cl` (racemic), for which the IC50 in data set [1] was 2 nM; on Cytochrome P450 1A2, greater than 50000 nM; against Cytochrome P450 2C9 it was 100 nM; against Cytochrome P450 2C19 it was 8000 nM; on Cytochrome P450 2D6 it was 18000 nM; against Cytochrome P450 3A4, greater than 50000 nM. For the same compound, the clearance in data set [2] is 29 mL/min/kg. In addition, the Vd in data set [3] was determined as 3.26 L/kg. In data set [15], this compound showed an AUC of 0.03 µM·h. For the same compound, the bioavailability in data set [16] came to 0.3%.

For the compound `CC(C)N[C@@H]1CCC=C(c2ccc(F)cc2)[C@H]1COc1cc(F)c(S(=O)(=O)Nc2cscn2)cc1Cl.Cl` (racemic), the IC50 in data set [1] is 94 nM. Moreover, the Kp at 2 h in [6] is 0.08. In addition, the Papp A→B at 2 h, 2 µM in the data set “in vitro [7]” was 1.1 ×10⁻⁶ cm/s. Further, in “in vitro [8]”, the efflux ratio at 2 h, 2 µM came to 37.

The compound `CCN[C@@H]1CCC=C(c2ccc(F)cc2)[C@H]1COc1cc(F)c(S(=O)(=O)Nc2cscn2)cc1Cl.Cl` (racemic) yielded an IC50 in data set [1] of 59 nM. Also, in data set [6], the Kp at 2 h was determined as 0.08. Also, the apical-to-basolateral permeability (Papp A→B) at 2 h, 2 µM in the data set “in vitro [7]” was 0.4 ×10⁻⁶ cm/s. The efflux ratio at 2 h, 2 µM in “in vitro [8]” is 70.

Take `O=S(=O)(Nc1cscn1)c1cc(Cl)c(OC[C@@H]2C(c3ccc(F)cc3)=CCC[C@H]2n2ccnc2)cc1F` (racemic): in data set [1], the midpoint of inhibition, the IC50, lay at 2340 nM.

For `Cl.N[C@@H]1CCC=C(c2ccc(F)cc2)[C@H]1CSc1cc(F)c(S(=O)(=O)Nc2cscn2)cc1Cl`, in data set [1], the IC50 came to 59 nM. In [2], this compound showed a clearance of 26.1 mL/min/kg. In [3], the Vd is 3.22 L/kg. In [4], this compound registered an area under the curve (AUC) of 0.62 µM·h. The same compound showed a bioavailability in [5] of 27%.
